Measurements reported in ChEMBL document CHEMBL5236634, “Membrane-Targeting Neolignan-Antimicrobial Peptide Mimic Conjugates to Combat Methicillin-Resistant Staphylococcus aureus (MRSA) Infections” (J Med Chem, 2022).
Calls of active or inactive are those of the source. The rule behind the calls is not given here.

Experiments:
Staphylococcus aureus [1] = assay: Inhibition of biofilm formation in Staphylococcus aureus ATCC 29213 incubated for 24 hrs by crystalline violet staining based analysis; type: functional, organism-based; conditions: dose 0.125-64 µg/ml
Staphylococcus aureus [2] = assay: Antibacterial activity against methicillin-resistant Staphylococcus aureus 15 incubated for 16 to 18 hrs in presence of peptidoglycan by checkerboard microdilution assay; type: functional, organism-based; conditions: time 16-18 hrs
Staphylococcus aureus [3] = assay: Antibacterial activity against methicillin-resistant Staphylococcus aureus 15 infected in BALB/c mouse sepsis model assessed as normalization of cell morphology in kidney at 10 mg/kg, ip measured after 48 hrs by H & E staining based analysis; type: functional, organism-based
Cell membrane [4] = assay: Induction of cell membrane disruption in methicillin-resistant Staphylococcus aureus 15 assessed as protein leakage at 1 to 6 times MIC incubated for 1 to 2 hrs; type: subcellular; conditions: time 1-2 hrs
Staphylococcus aureus [5] = assay: Inhibition of biofilm formation in methicillin-resistant Staphylococcus aureus 15 assessed as destruction of formed biofilm at 128 ug/ml incubated for 24 hrs by crystal violet staining based analysis relative to control; type: functional
Staphylococcus aureus [6] = assay: Antibiofilm activity against Staphylococcus aureus ATCC 29213 assessed as reduction in live bacteria in biofilm incubated for 24 hrs by crystal violet staining based analysis; type: functional, organism-based; conditions: dose 0-128 µg/ml
Staphylococcus aureus [7] = assay: Antibacterial activity against methicillin-resistant Staphylococcus aureus 15 infected in BALB/c mouse sepsis model assessed as survival rate at 20 mg/kg, ip administered for 7 days; type: functional; conditions: Staphylococcus aureus, 15, 168 h, time 7 day
[8] = Toxicity in BALB/c mouse assessed as survival rate at 10 to 50 mg/kg, ip administered as single dose and measured for 7 consecutive days; type: organism-based; conditions: in vivo, dose 10-50 mg/kg, time 7 day
Staphylococcus aureus [9] = assay: Antibacterial activity against methicillin-resistant Staphylococcus aureus 15 infected in BALB/c mouse sepsis model assessed as reduction in inflammatory factors in organs at 10 mg/kg, ip measured after 48 hrs by H & E staining based analysis; type: functional, organism-based
Staphylococcus aureus [10] = assay: Antibacterial activity against Staphylococcus aureus ATCC 29213 assessed as inhibition of bacterial growth incubated for 16 to 20 hrs by CLSI based microdilution method; type: functional; conditions: time 16-20 hrs
Staphylococcus aureus [11] = assay: Bactericidal activity against Staphylococcus aureus ATCC 29213 at 4 to 8 times MIC measured for 24 hrs by time kill assay; type: functional, organism-based
Cell membrane [12] = assay: Induction of membrane depolarization in methicillin-resistant Staphylococcus aureus 15 assessed as increase in fluorescence intensity at 32 ug/ml by DiSC3-5 dye based fluorescence method; type: subcellular; conditions: dose 32.0 µg/ml
Staphylococcus aureus [13] = assay: Antibiofilm activity against methicillin-resistant Staphylococcus aureus 15 assessed as reduction in live bacteria in biofilm incubated for 24 hrs by crystal violet staining based analysis; type: functional, organism-based; conditions: dose 0-128 µg/ml
Staphylococcus aureus [14] = assay: Antibacterial activity against methicillin-resistant Staphylococcus aureus 15 incubated for 16 to 18 hrs in presence of phosphatidylethanolamine by checkerboard microdilution assay; type: functional, organism-based; conditions: time 16-18 hrs
Cell membrane [15] = assay: Induction of cell membrane disruption in methicillin-resistant Staphylococcus aureus 15 assessed as DNA leakage at 1 to 6 times MIC incubated for 1 to 2 hrs by microspectrophotometer; type: subcellular; conditions: time 1-2 hrs
Escherichia coli = assay: Antibacterial activity against Escherichia coli ATCC 25922 assessed as inhibition of bacterial growth incubated for 16 to 20 hrs by CLSI based microdilution method; type: functional; conditions: time 16-20 hrs
Staphylococcus aureus [16] = assay: Inhibition of biofilm formation in Staphylococcus aureus ATCC 29213 at 64 ug/ml incubated for 24 hrs by crystalline violet staining based analysis; type: functional
[17] = Toxicity in BALB/c mouse assessed as pathological changes in kidney at 50 mg/kg, ip administered as single dose and measured after 24 hrs by H & E staining based analysis; type: organism-based; conditions: in vivo
[18] = Toxicity in BALB/c mouse assessed as effect on RBC count at 50 mg/kg, ip administered as single dose and measured after 24 hrs; type: organism-based, Erythrocyte; conditions: in vivo
Staphylococcus aureus [19] = assay: Antibacterial activity against methicillin-resistant Staphylococcus aureus 15 infected in BALB/c mouse sepsis model assessed as reduction in bacterial load in kidney at 10 mg/kg, ip measured after 48 hrs; type: functional, organism-based
Staphylococcus aureus [20] = assay: Bactericidal activity against methicillin-resistant Staphylococcus aureus 15 at 4 to 8 times MIC measured after 3 hrs by time kill assay; type: functional
Salmonella enterica = assay: Antibacterial activity against Salmonella enterica 8389 assessed as inhibition of bacterial growth incubated for 16 to 20 hrs by CLSI based microdilution method; type: functional; conditions: time 16-20 hrs
[21] = Toxicity in BALB/c mouse assessed as effect on WBC count at 50 mg/kg, ip administered as single dose and measured after 24 hrs; type: organism-based; conditions: in vivo
[22] = Toxicity in BALB/c mouse assessed as effect on creatinine level at 50 mg/kg, ip administered as single dose and measured after 24 hrs; type: organism-based; conditions: in vivo
Staphylococcus aureus [23] = assay: Induction of drug resistance in Staphylococcus aureus ATCC 29213 assessed as increase in MIC at 0.5 times MIC measured for 20 days by CLSI based microdilution method; type: functional, organism-based; conditions: time 20.0 day
[24] = Hemolytic activity in sheep RBC incubated for 1 hr by absorbance based analysis; type: toxicity, cell-based, Ovis aries, Erythrocyte; conditions: sheep red blood cells
Staphylococcus aureus [25] = assay: Antibacterial activity against methicillin-resistant Staphylococcus aureus 15 incubated for 16 to 18 hrs in presence of phosphatidylglycerol by checkerboard microdilution assay; type: functional, organism-based; conditions: time 16-18 hrs
[26] = Toxicity in BALB/c mouse assessed as effect on urea level at 50 mg/kg, ip administered as single dose and measured after 24 hrs; type: organism-based; conditions: in vivo
Cell membrane [27] = assay: Disruption of membrane integrity in methicillin-resistant Staphylococcus aureus 15 assessed as increase in fluorescence intensity at 32 ug/ml measured immediately by Sytox green based fluorescence method; type: subcellular; conditions: dose 32.0 µg/ml
[28] = Selectivity index, ratio of HC50 for hemolytic activity in sheep RBC to MIC for antibacterial activity against Staphylococcus aureus ATCC 29213; type: toxicity; conditions: sheep red blood cells
[29] = Stability in 50% plasma (unknown origin) assessed as change in MBC against methicillin-resistant Staphylococcus aureus 15 measured for 6 hrs; type: ADME, cell-free
Cell membrane [30] = assay: Disruption of membrane integrity in methicillin-resistant Staphylococcus aureus 15 assessed as increase in red fluorescence at 16 ug/ml incubated for 1 hr by DAPI/PI staining based fluorescence microscopic analysis; type: subcellular; conditions: dose 16.0 µg/ml
Staphylococcus aureus [31] = assay: Induction of ROS production in methicillin-resistant Staphylococcus aureus 15 assessed as accumulation of intracellular ROS incubated for 30 mins by DCFH-DA staining based fluorescence assay; type: functional, organism-based; conditions: dose 2-64 µg/ml
Staphylococcus aureus [32] = assay: Antibacterial activity against methicillin-resistant Staphylococcus aureus 15 infected in BALB/c mouse sepsis model assessed as normalization of cell morphology in liver at 10 mg/kg, ip measured after 48 hrs by H & E staining based analysis; type: functional, organism-based
L02 = assay: Cytotoxicity against human L02 cells assessed as reduction in cell viability at 2.5 to 80 ug/ml incubated for 24 hrs by CCK-8 assay; type: toxicity, cell-based; conditions: l02, 24 h, dose 2.5-80 µg/ml
Staphylococcus aureus [33] = assay: Antibacterial activity against methicillin-resistant Staphylococcus aureus 15 infected in BALB/c mouse sepsis model assessed as reduction in bacterial load in liver at 10 mg/kg, ip measured after 48 hrs; type: functional, organism-based
[34] = Toxicity in BALB/c mouse assessed as effect on albumin level at 50 mg/kg, ip administered as single dose and measured after 24 hrs; type: organism-based; conditions: in vivo

SMILES	inhibition (Staphylococcus aureus [1])	Activity (Staphylococcus aureus [2])	Activity (Staphylococcus aureus [3])	Activity (Cell membrane [4])	inhibition at 128 µg/mL (Staphylococcus aureus [5]) [%]	Activity (Staphylococcus aureus [6])	survival at 20 mg/kg (Staphylococcus aureus [7]) [%]	survival at 168 h [8] [%]	Activity (Staphylococcus aureus [9])	MIC (Staphylococcus aureus [10]) [µg/mL]	Activity (Staphylococcus aureus [11])	Activity (Cell membrane [12])	Activity (Staphylococcus aureus [13])	Activity (Staphylococcus aureus [14])	Activity (Cell membrane [15])	MIC (Escherichia coli) [µg/mL]	inhibition at 64 µg/mL (Staphylococcus aureus [16]) [%]	Activity [17]	Activity [18]	Activity (Staphylococcus aureus [19])	other results
C=CCc1cccc(Oc2ccc(C(=O)CC)cc2)c1OCCC[N+](C)(C)CC(=O)NCCCCCC.[Br-]	Dose-Dependent Effect	Active	Active	Active	> 80	Active	100	100	Active	2	Dose-Dependent Effect	Active	Active	Active	Active	16	100	Non-Toxic	Non-Toxic	Active	Activity (Staphylococcus aureus [20]): 100%; MIC (Salmonella enterica): 32 µg/mL; Activity [21]: Non-Toxic; Activity [22]: Non-Toxic; Activity (Staphylococcus aureus [23]): inactive; HC50 at 1 h [24]: 916 µg/mL; Activity (Staphylococcus aureus [25]): inactive; Activity [26]: Non-Toxic; Activity (Cell membrane [27]): Active; selectivity ratio [28]: 458; Stability [29]: Stable; Activity (Cell membrane [30]): Active; Activity (Staphylococcus aureus [31]): Dose-Dependent Effect; Activity (Staphylococcus aureus [32]): Active; Activity (L02): Non-Toxic; Activity (Staphylococcus aureus [33]): Active; Activity [34]: Non-Toxic
C=CCc1cccc(Oc2ccc(C(=O)CC)cc2)c1OCC[N+](C)(C)CC(=O)NCCCCCC.[Br-]	Dose-Dependent Effect	Active	Active	Active	> 80	Active	100	100	Active	2	Dose-Dependent Effect	Active	Active	Active	Active	8	100	Non-Toxic	Non-Toxic	Active	Activity (Staphylococcus aureus [20]): 100%; MIC (Salmonella enterica): 64 µg/mL; Activity [21]: Non-Toxic; Activity [22]: Non-Toxic; Activity (Staphylococcus aureus [23]): inactive; HC50 at 1 h [24]: 1110 µg/mL; Activity (Staphylococcus aureus [25]): inactive; Activity [26]: Non-Toxic; Activity (Cell membrane [27]): Active; selectivity ratio [28]: 556; Stability [29]: Stable; Activity (Cell membrane [30]): Active; Activity (Staphylococcus aureus [31]): Dose-Dependent Effect; Activity (Staphylococcus aureus [32]): Active; Activity (L02): Non-Toxic; Activity (Staphylococcus aureus [33]): Active; Activity [34]: Non-Toxic
